Measurements taken from ChEMBL document CHEMBL1143744, “Modification of eukaryotic initiation factor 5A from Plasmodium vivax by a truncated deoxyhypusine synthase from Plasmodium falciparum: An enzyme with dual enzymatic properties” (Bioorg Med Chem, 2007).

Target: T1, Deoxyhypusine synthase (Plasmodium falciparum, UniProt Q9GSW0)
T1 sequence (Q9GSW0 whole entry): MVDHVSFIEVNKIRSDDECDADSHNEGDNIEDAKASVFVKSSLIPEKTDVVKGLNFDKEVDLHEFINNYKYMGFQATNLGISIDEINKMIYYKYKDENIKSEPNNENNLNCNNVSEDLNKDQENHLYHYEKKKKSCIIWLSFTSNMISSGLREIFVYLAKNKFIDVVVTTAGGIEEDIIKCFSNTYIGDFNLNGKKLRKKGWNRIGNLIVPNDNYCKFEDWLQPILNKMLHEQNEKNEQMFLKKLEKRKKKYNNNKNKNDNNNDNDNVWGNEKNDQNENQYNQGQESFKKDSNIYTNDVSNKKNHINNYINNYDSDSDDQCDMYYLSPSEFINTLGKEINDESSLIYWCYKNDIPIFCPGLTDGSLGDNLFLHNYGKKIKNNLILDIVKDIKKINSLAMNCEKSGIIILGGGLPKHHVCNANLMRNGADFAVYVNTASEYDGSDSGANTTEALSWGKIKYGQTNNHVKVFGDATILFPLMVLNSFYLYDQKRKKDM
Test: Inhibition of recombinant deoxyhypusine synthase in Plasmodium falciparum NF54

Row | Ki [µM] | Compound
1 | 50 | NCCCCCCCN
2 | 0.1 | N=C(N)NCCCCCCCN
